*1 amine or outer side, *2 acyl side, *3 side chain or, on linkers, in order; H or OH if unused. Where a SMILES comes first, the peptide text is derived from it. Side-chain parts run from the residue outwards. [ ]: non-standard residue; d: D form. The star is where a group is joined. C20 diacid = O=C(O)CCCCCCCCCCCCCCCCCCC(=O)*; C18 diacid = O=C(O)CCCCCCCCCCCCCCCCC(=O)*; αMePhe(2-F) = C[C@](N)(Cc1ccccc1F)C(=O)O; γGlu = O=C(O)[C@H](CCC(=O)[*:2])N[*:1]; αMeF = C[C@](N)(Cc1ccccc1)C(=O)O; 4Pal = N[C@@H](Cc1ccncc1)C(=O)O; αMeL = CC(C)C[C@](C)(N)C(=O)O; AEEA = NCCOCCOCC(=O)O; Aib = CC(C)(N)C(=O)O
Legend:
human GIPR = target: T1, human GIPR (Homo sapiens, UniProt P48546); assay: [125I]-GIP binding, SPA with WGA beads, 0.1% bacitracin; conditions: geometric mean, read-out: hGIPR Ki
T1 construct: expressed in transfected cells; crude membranes
T1 sequence (P48546 22-466): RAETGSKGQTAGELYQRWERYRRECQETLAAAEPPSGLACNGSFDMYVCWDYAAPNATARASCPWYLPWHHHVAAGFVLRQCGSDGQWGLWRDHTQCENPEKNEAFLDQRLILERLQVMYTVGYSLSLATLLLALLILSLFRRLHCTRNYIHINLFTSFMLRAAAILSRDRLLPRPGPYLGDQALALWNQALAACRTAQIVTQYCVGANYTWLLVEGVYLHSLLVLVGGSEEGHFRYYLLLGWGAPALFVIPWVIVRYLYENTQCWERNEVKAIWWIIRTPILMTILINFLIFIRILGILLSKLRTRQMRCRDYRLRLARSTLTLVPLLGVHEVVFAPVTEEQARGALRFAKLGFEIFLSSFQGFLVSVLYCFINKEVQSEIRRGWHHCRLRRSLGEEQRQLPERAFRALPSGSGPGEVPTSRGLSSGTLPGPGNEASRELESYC
Outline: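 Ki values are geometric means (SEM, n independent days), derived from four-parameter nonlinear regression of IC50. Membranes came from hGIPR-expressing CHO cells.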

human GcgR = target: T2, human GcgR (Homo sapiens, UniProt P47871); assay: [125I]-Glucagon binding, SPA with WGA beads, 0.1% bacitracin; conditions: geometric mean, read-out: hGcgR Ki
T2 construct: expressed in transfected cells; crude membranes
Outline: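 SPA competition binding with WGA beads on crude membranes from HEK293 cells stably expressing hGcgR. Buffer: 25 mM HEPES pH 7.4, 2.5 mM CaCl2, 1 mM MgCl2, 0.1% bacitracin, 0.003% Tween-20; 10-point 3-fold dilutions, NSB with 1 μM Gcg.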

T2 sequence (P47871 26-477): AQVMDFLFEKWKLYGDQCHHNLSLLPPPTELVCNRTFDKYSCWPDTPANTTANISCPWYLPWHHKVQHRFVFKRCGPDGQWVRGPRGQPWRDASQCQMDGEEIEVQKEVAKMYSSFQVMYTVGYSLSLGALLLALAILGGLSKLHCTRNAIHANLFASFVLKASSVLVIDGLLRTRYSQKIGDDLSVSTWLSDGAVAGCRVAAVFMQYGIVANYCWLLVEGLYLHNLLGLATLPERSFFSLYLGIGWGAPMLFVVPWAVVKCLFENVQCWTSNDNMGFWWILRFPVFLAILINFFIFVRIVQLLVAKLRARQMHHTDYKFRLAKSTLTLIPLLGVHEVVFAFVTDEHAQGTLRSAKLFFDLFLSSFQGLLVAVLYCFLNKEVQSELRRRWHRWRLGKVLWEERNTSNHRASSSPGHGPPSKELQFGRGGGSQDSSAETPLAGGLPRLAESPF

| SMILES | Ki (human GIPR) | Ki (human GcgR) |
| --- | --- | --- |
| CC[C@H](C)[C@H](NC(=O)[C@H](CCCCN)NC(=O)[C@H](CC(=O)O)NC(=O)[C@H](CC(C)C)NC(=O)[C@](C)(CC(C)C)NC(=O)[C@@H](NC(=O)[C@H](CO)NC(=O)[C@H](Cc1ccc(O)cc1)NC(=O)[C@H](CC(=O)O)NC(=O)[C@H](CO)NC(=O)[C@@H](NC(=O)[C@H](Cc1ccccc1)NC(=O)[C@@H](NC(=O)CNC(=O)[C@H](CCC(=O)O)NC(=O)C(C)(C)NC(=O)[C@@H](N)Cc1ccc(O)cc1)[C@@H](C)O)[C@@H](C)CC)[C@@H](C)CC)C(=O)N[C@@H](Cc1c[nH]cn1)C(=O)N[C@@H](CCC(N)=O)C(=O)NC(C)(C)C(=O)N[C@@H](CC(=O)O)C(=O)N[C@@H](Cc1ccccc1)C(=O)N[C@H](C(=O)N[C@@H](CCC(=O)O)C(=O)N[C@@H](Cc1ccncc1)C(=O)N[C@@H](CCCCNC(=O)COCCOCCNC(=O)COCCOCCNC(=O)CC[C@H](NC(=O)CCCCCCCCCCCCCCCCC(=O)O)C(=O)O)C(=O)N[C@@H](CC(C)C)C(=O)N[C@@H](CCC(=O)O)C(=O)NCC(=O)NCC(=O)N1CCC[C@H]1C(=O)N[C@@H](CO)C(=O)N[C@@H](CO)C(=O)NCC(=O)N[C@@H](C)C(=O)N1CCC[C@H]1C(=O)N1CCC[C@H]1C(=O)N1CCC[C@H]1C(=O)N[C@@H](CO)C(N)=O)C(C)C [Example 110] (H-Y[Aib]EGTFISDYSI[αMeL]LDKIHQ[Aib]DFVE[4Pal]K([AEEA-AEEA-γGlu-C18 diacid])LEGGPSSGAPPPS-NH2) | 0.339 nM | > 960 nM |
| CC[C@H](C)[C@H](NC(=O)[C@H](Cc1ccccc1)NC(=O)[C@@H](NC(=O)CNC(=O)[C@H](CCC(=O)O)NC(=O)C(C)(C)NC(=O)[C@@H](N)Cc1ccc(O)cc1)[C@@H](C)O)C(=O)N[C@@H](CO)C(=O)N[C@@H](CC(=O)O)C(=O)N[C@@H](Cc1ccc(O)cc1)C(=O)N[C@@H](CO)C(=O)N[C@H](C(=O)N[C@@](C)(CC(C)C)C(=O)N[C@@H](CC(C)C)C(=O)N[C@@H](CC(=O)O)C(=O)N[C@@H](CCC(=O)O)C(=O)N[C@@H](CCCCNC(=O)COCCOCCNC(=O)COCCOCCNC(=O)CC[C@H](NC(=O)CCCCCCCCCCCCCCCCCCC(=O)O)C(=O)O)C(=O)N[C@@H](Cc1c[nH]cn1)C(=O)N[C@@H](CCC(N)=O)C(=O)NC(C)(C)C(=O)N[C@@H](CC(=O)O)C(=O)N[C@@H](Cc1ccccc1)C(=O)N[C@H](C(=O)N[C@@H](CCC(=O)O)C(=O)N[C@@H](Cc1ccncc1)C(=O)N[C@@H](CC(C)C)C(=O)N[C@@H](CC(C)C)C(=O)N[C@@H](C)C(=O)N[C@@H](C)C(=O)NCC(=O)N1CCC[C@H]1C(=O)N[C@@H](CO)C(=O)N[C@@H](CO)C(=O)NCC(=O)N[C@@H](C)C(=O)N1CCC[C@H]1C(=O)N1CCC[C@H]1C(=O)N1CCC[C@H]1C(=O)N[C@@H](CO)C(N)=O)C(C)C)[C@@H](C)CC [Example 85] | 0.0529 nM | 800 nM |
| CC[C@H](C)[C@H](NC(=O)[C@H](CCCN)NC(=O)[C@H](CC(=O)O)NC(=O)[C@H](CC(C)C)NC(=O)[C@](C)(CC(C)C)NC(=O)[C@@H](NC(=O)[C@H](CO)NC(=O)[C@H](Cc1ccc(O)cc1)NC(=O)[C@H](CC(=O)O)NC(=O)[C@H](CO)NC(=O)[C@@H](NC(=O)[C@H](Cc1ccccc1)NC(=O)[C@@H](NC(=O)CNC(=O)[C@H](CCC(=O)O)NC(=O)C(C)(C)NC(=O)[C@@H](N)Cc1ccc(O)cc1)[C@@H](C)O)[C@@H](C)CC)[C@@H](C)CC)C(=O)N[C@@H](Cc1c[nH]cn1)C(=O)N[C@@H](CCC(N)=O)C(=O)NC(C)(C)C(=O)N[C@@H](CC(=O)O)C(=O)N[C@@H](Cc1ccccc1)C(=O)N[C@H](C(=O)N[C@@H](CCC(=O)O)C(=O)N[C@@H](Cc1ccc(O)cc1)C(=O)N[C@@H](CCCCNC(=O)COCCOCCNC(=O)COCCOCCNC(=O)CC[C@H](NC(=O)CCCCCCCCCCCCCCCCCCC(=O)O)C(=O)O)C(=O)N[C@@H](CC(C)C)C(=O)N[C@@H](CCC(=O)O)C(=O)NCC(=O)NCC(=O)N1CCC[C@H]1C(=O)N[C@@H](CO)C(=O)N[C@@H](CO)C(=O)NCC(=O)N[C@@H](C)C(=O)N1CCC[C@H]1C(=O)N1CCC[C@H]1C(=O)N1CCC[C@H]1C(=O)N[C@@H](CO)C(N)=O)C(C)C [Example 6] | 0.104 nM | 453 nM |
| CC[C@H](C)[C@H](NC(=O)[C@H](CO)NC(=O)[C@H](Cc1ccc(O)cc1)NC(=O)[C@H](CC(=O)O)NC(=O)[C@H](CO)NC(=O)[C@@H](NC(=O)[C@](C)(Cc1ccccc1F)NC(=O)[C@@H](NC(=O)CNC(=O)[C@H](CCC(=O)O)NC(=O)C(C)(C)NC(=O)[C@@H](N)Cc1ccc(O)cc1)[C@@H](C)O)[C@@H](C)CC)C(=O)N[C@@H](C)C(=O)N[C@@H](CC(C)C)C(=O)N[C@@H](CC(=O)O)C(=O)N[C@@H](CCCCN)C(=O)N[C@H](C(=O)N[C@@H](Cc1c[nH]cn1)C(=O)N[C@@H](CCC(N)=O)C(=O)NC(C)(C)C(=O)N[C@@H](CC(=O)O)C(=O)N[C@@H](Cc1ccccc1)C(=O)N[C@H](C(=O)N[C@@H](CCC(=O)O)C(=O)N[C@@H](Cc1ccncc1)C(=O)N[C@@H](CCCCNC(=O)COCCOCCNC(=O)COCCOCCNC(=O)CC[C@H](NC(=O)CCCCCCCCCCCCCCCCCCC(=O)O)C(=O)O)C(=O)N[C@@H](CC(C)C)C(=O)N[C@@H](CCC(=O)O)C(=O)N[C@@H](C)C(=O)NCC(=O)N1CCC[C@H]1C(=O)N[C@@H](CO)C(=O)N[C@@H](CO)C(=O)NCC(=O)N[C@@H](C)C(=O)N1CCC[C@H]1C(=O)N1CCC[C@H]1C(=O)N1CCC[C@H]1C(=O)N[C@@H](CO)C(N)=O)C(C)C)[C@@H](C)CC [Example 113] (H-Y[Aib]EGT[αMePhe(2-F)]ISDYSIALDKIHQ[Aib]DFVE[4Pal]K([AEEA-AEEA-γGlu-C20 diacid])LEAGPSSGAPPPS-NH2) | 0.108 nM | 821 nM |
| CC[C@H](C)[C@H](NC(=O)[C@H](CO)NC(=O)[C@H](Cc1ccc(O)cc1)NC(=O)[C@H](CC(=O)O)NC(=O)[C@H](CO)NC(=O)[C@@H](NC(=O)[C@H](Cc1ccccc1)NC(=O)[C@@H](NC(=O)CNC(=O)[C@H](CCC(=O)O)NC(=O)[C@@H](C)NC(=O)[C@@H](N)Cc1ccc(O)cc1)[C@@H](C)O)[C@@H](C)CC)C(=O)N[C@@H](CC(C)C)C(=O)N[C@@H](CC(C)C)C(=O)N[C@@H](CC(=O)O)C(=O)N[C@@H](CCCCN)C(=O)N[C@@H](CCCCNC(=O)COCCOCCNC(=O)COCCOCCNC(=O)CC[C@H](NC(=O)CCCCCCCCCCCCCCCCCCC(=O)O)C(=O)O)C(=O)N[C@@H](Cc1c[nH]cn1)C(=O)N[C@@H](CCC(N)=O)C(=O)N[C@@H](CCC(N)=O)C(=O)N[C@@H](CCC(=O)O)C(=O)N[C@@H](Cc1ccccc1)C(=O)N[C@H](C(=O)N[C@@H](CC(N)=O)C(=O)N[C@@H](Cc1c[nH]c2ccccc12)C(=O)N[C@@H](CC(C)C)C(=O)N[C@@H](CC(C)C)C(=O)N[C@@H](C)C(=O)N[C@@H](CCC(N)=O)C(=O)NCC(=O)N1CCC[C@H]1C(=O)N[C@@H](CO)C(=O)N[C@@H](CO)C(=O)NCC(=O)N[C@@H](C)C(=O)N1CCC[C@H]1C(=O)N1CCC[C@H]1C(=O)N1CCC[C@H]1C(=O)N[C@@H](CO)C(N)=O)C(C)C [Example 13] (H-Y[dA]EGTFISDYSILLDKK([AEEA-AEEA-γGlu-C20 diacid])HQQEFVNWLLAQGPSSGAPPPS-NH2) | 0.237 nM | > 230 nM |
| CC[C@H](C)[C@H](NC(=O)[C@H](CO)NC(=O)[C@H](Cc1ccc(O)cc1)NC(=O)[C@H](CC(=O)O)NC(=O)[C@H](CO)NC(=O)[C@@H](NC(=O)[C@](C)(Cc1ccccc1)NC(=O)[C@@H](NC(=O)CNC(=O)[C@H](CCC(=O)O)NC(=O)C(C)(C)NC(=O)[C@@H](N)Cc1ccc(O)cc1)[C@@H](C)O)[C@@H](C)CC)C(=O)N[C@@H](C)C(=O)N[C@@H](CC(C)C)C(=O)N[C@@H](CC(=O)O)C(=O)N[C@@H](CCCCN)C(=O)N[C@@H](CCCCNC(=O)COCCOCCNC(=O)COCCOCCNC(=O)CC[C@H](NC(=O)CCCCCCCCCCCCCCCCCCC(=O)O)C(=O)O)C(=O)N[C@@H](Cc1c[nH]cn1)C(=O)N[C@@H](CCC(N)=O)C(=O)NC(C)(C)C(=O)N[C@@H](CCC(=O)O)C(=O)N[C@@H](Cc1ccccc1)C(=O)N[C@H](C(=O)N[C@@H](CC(N)=O)C(=O)N[C@@H](Cc1c[nH]c2ccccc12)C(=O)N[C@@H](CC(C)C)C(=O)N[C@@H](CC(C)C)C(=O)N[C@@H](C)C(=O)NCC(=O)NCC(=O)N1CCC[C@H]1C(=O)N[C@@H](CO)C(=O)N[C@@H](CO)C(=O)NCC(=O)N[C@@H](C)C(=O)N1CCC[C@H]1C(=O)N1CCC[C@H]1C(=O)N1CCC[C@H]1C(=O)N[C@@H](CO)C(N)=O)C(C)C [Example 25] (H-Y[Aib]EGT[αMeF]ISDYSIALDKK([AEEA-AEEA-γGlu-C20 diacid])HQ[Aib]EFVNWLLAGGPSSGAPPPS-NH2) | 0.0417 nM | 101 nM |

— patent US12723063B2, “GIPR-agonist compounds” (Eli Lilly and Company, priority 2019, dated 2026)
